The text below walks through data of PMC12198407, “Preclinical and first-in-human of purinostat mesylate, a novel selective HDAC I/IIb inhibitor, in relapsed/refractory multiple myeloma and lymphoma” (Signal Transduction and Targeted Therapy, 2025).

Structures are written as SMILES. “And” between values parts separate entries of the source, which are not always exact repeats. Equal values may be shown once. Read-outs that look alike come from different tables or passages of the source.

Data set [1] has as its system BCR-ABL positive B-ALL PDX. Briefly: PDX model of clinical B-ALL patient. Type of data set: in vivo, NOD/SCID mice. An excerpt: A clinical sample from a B-ALL patient was obtained, characterized by BCR-ABL positivity and relapse after first-line treatment.
Data set [2] in a line: Pharmacokinetics in plasma and tumor, HCT116 tumor-bearing mice. In kind it is in vivo, nude mice. On the procedure: The mean residence time (MRT) was 0.51 ± 0.06 hours in plasma and 39.48 ± 4.74 hours in tumor.
Data set [3] concerns the target HDAC4 (Homo sapiens, UniProt P56524). Briefly: HDAC enzyme activity in vitro. Type of data set: biochemical.
For data set [4], the target named is human ether-à-go-go-related gene (hERG) channel (Homo sapiens, UniProt Q12809). The data set is described as follows: hERG inhibition. Type of data set: biochemical. For orientation: Block of hERG is tested as a sign of cardiac risk.
In data set [5] the test system is RPMI-8226 xenograft (TP53 E285K). Briefly: RPMI-8226 xenograft mouse model, PM+Pd combination. The settings on record: PM 5 mg/kg; Dara+Bort+DXM 5+0.1+1; Pd 2.5+1; PM+Pd 5+2.5+1 mg/kg. Type of data set: in vivo, NOD-SCID mice.
Method: Mice received subcutaneous inoculation with 0.5 × 10^7 MM1S or RPMI-8226 cells, to establish xenograft models. […] When tumors reached 150–250 mm^3, mice were treated with various compounds. PM and panobinostat were administered intravenously three times a week at 5 mg/kg in combination therapy. […] Tumor volume (tumor volume (mm^3) = π/6 × length × width^2) and body weights were measured every two days. At the end, tumor tissues were weighed, and antitumor activity was evaluated by the tumor inhibition rate = (1 − tumor weight of treatment group/tumor weight of vehicle group) × 100%.
Data set [6] deals with T1, CYP3A4 (Homo sapiens, UniProt P08684).
T1 construct: human liver microsomal cytochrome P450 isoenzymes; from tissue; host or cells: human liver microsomes
Briefly: CYP inhibition, human liver microsomes. In kind it is in vitro ADME.

Data set [7] addresses T2, CYP2D6 (Homo sapiens, UniProt P10635).
T2 construct: human liver microsomal cytochrome P450 isoenzymes; from tissue; host or cells: human liver microsomes
Briefly: CYP inhibition, human liver microsomes. In kind it is in vitro ADME. In general terms: Microsomes from liver hold many membrane-bound enzymes, among them those of drug oxidation.

T1 sequence (P08684 whole entry): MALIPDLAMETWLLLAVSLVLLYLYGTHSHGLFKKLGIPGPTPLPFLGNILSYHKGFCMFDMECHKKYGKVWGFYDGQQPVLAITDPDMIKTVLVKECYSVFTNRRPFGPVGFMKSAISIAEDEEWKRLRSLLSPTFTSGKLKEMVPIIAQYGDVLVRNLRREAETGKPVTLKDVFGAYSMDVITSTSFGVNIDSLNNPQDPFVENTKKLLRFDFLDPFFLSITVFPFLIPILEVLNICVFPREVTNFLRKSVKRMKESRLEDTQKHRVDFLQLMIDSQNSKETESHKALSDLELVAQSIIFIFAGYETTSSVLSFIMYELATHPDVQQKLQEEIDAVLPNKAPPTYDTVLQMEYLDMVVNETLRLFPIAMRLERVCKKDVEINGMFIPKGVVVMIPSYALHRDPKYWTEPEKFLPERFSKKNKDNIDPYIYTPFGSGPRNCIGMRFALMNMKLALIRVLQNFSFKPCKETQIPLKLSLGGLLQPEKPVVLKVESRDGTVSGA
Chain of HDAC4 (P56524 whole entry): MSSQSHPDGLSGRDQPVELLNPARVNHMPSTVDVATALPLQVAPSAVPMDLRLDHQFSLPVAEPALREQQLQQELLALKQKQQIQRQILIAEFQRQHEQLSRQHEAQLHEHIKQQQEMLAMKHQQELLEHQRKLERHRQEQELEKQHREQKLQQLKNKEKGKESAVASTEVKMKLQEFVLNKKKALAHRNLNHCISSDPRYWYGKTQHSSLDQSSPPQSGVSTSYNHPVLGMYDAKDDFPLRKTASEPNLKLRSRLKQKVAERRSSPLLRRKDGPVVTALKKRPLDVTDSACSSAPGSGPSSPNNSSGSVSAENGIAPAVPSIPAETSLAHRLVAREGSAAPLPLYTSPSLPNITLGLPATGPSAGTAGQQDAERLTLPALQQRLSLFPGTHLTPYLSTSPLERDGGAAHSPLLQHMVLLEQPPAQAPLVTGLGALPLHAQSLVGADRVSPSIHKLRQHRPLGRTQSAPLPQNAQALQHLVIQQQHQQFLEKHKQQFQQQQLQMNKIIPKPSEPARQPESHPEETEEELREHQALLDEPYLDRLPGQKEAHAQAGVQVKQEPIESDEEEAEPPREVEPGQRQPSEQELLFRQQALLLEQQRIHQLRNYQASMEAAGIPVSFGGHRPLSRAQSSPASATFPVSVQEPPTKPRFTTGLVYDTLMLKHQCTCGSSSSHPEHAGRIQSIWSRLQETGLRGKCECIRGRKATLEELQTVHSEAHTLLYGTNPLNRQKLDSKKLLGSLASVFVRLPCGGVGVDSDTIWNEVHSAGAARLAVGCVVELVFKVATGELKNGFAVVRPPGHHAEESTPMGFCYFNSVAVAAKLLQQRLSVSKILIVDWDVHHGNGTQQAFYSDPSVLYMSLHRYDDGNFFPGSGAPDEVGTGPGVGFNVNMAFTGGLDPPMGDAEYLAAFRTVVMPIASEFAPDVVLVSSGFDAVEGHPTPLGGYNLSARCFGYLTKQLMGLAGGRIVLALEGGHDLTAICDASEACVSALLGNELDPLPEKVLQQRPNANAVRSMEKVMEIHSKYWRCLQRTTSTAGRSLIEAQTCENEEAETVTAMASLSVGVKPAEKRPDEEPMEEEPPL
Chain of human ether-à-go-go-related gene (hERG) channel (Q12809 whole entry): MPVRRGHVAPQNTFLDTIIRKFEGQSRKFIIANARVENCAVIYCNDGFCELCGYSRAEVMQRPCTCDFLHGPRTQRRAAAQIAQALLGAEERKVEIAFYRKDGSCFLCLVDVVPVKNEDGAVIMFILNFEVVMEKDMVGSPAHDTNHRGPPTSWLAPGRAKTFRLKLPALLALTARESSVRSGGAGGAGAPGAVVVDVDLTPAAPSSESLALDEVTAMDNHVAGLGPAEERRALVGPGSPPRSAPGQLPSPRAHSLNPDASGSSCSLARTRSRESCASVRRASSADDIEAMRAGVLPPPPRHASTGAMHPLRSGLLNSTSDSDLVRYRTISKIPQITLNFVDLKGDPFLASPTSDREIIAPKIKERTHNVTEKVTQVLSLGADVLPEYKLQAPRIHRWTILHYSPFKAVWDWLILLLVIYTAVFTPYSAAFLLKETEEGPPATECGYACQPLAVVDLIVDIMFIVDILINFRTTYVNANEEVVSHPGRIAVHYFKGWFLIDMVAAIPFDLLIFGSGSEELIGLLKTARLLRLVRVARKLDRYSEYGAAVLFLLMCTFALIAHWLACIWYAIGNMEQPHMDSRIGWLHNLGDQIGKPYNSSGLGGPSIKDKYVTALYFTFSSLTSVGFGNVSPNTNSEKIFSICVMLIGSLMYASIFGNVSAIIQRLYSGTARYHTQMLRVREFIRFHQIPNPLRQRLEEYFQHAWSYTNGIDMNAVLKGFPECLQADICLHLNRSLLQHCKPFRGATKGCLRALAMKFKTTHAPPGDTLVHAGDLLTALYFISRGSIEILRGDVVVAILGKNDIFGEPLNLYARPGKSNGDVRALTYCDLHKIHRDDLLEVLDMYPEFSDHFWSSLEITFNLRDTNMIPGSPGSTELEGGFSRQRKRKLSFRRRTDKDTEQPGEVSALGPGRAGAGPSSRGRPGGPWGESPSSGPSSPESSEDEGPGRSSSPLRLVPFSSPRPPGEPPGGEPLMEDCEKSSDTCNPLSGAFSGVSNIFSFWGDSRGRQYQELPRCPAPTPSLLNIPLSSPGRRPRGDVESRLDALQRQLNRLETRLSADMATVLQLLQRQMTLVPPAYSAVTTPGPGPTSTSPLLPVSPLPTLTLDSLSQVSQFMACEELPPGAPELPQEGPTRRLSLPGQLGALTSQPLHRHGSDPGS
T2 sequence (P10635 whole entry): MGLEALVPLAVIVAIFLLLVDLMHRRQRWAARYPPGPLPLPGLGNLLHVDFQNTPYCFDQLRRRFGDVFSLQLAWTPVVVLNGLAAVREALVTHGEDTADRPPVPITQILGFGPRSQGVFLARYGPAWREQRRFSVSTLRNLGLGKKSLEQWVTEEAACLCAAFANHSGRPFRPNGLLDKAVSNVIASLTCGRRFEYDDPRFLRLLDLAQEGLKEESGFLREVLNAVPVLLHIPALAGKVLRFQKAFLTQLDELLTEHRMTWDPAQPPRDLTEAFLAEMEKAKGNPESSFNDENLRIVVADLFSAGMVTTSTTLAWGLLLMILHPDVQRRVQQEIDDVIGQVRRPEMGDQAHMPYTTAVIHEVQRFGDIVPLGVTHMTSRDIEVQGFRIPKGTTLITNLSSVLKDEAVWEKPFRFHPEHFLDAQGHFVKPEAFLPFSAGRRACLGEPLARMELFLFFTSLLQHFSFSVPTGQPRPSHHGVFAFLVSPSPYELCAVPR

`CN(Cc1nc2c(N3CCOCC3)nc(-c3ccc(N)cc3)nc2n1C)c1ncc(C(=O)NO)cn1.CS(=O)(=O)O` [PM, 2-(((2-(4-Aminophenyl)-9-methyl-6-(4-morpholinyl)-9H-purine-8-yl)methyl)methylamino)-N-hydroxy-5-pyrimidine-carboxamide Mesylate]: the median survival time in data set [1] (2.5 mg/kg, solvent control 21 days) came out at 66 days; in data set [1] (10 mg/kg), 73 days. For the same compound, the “tumor AUC(0-96h)” value in data set [2] (multiple i.v. 10 mg/kg) was found to be 9068 ± 213 µg·h/L; in data set [2] (single i.v. 10 mg/kg) it was 12922 ± 498 µg/Lh. In addition, the maximum concentration (Cmax) in data set [2] (nude, mouse, plasma, iv, 10 mg/kg, single i.v. 10 mg/kg, read-out: Cmax in plasma) turned out to be 442 ± 67.2 ng/mL; in data set [2] (nude, mouse, tumor, iv, 10 mg/kg, multiple i.v. 10 mg/kg, read-out: Cmax in tumor) it was 283 ± 64.8 ng/mL; in data set [2] (nude, mouse, tumor, iv, 10 mg/kg, single i.v. 10 mg/kg, read-out: Cmax in tumor) it was 1040 ± 167 ng/mL. For the same compound, the MRT was determined as 0.51 ± 0.06 h in data set [2] (nude, mouse, plasma, iv, 10 mg/kg, single i.v. 10 mg/kg, read-out: MRT in plasma); 34.7 ± 1.86 h in data set [2] (nude, mouse, tumor, iv, 10 mg/kg, multiple i.v. 10 mg/kg, read-out: MRT in tumor); 39.5 ± 4.74 h in data set [2] (nude, mouse, tumor, iv, 10 mg/kg, single i.v. 10 mg/kg, read-out: MRT in tumor). Moreover, the half-life is 1.21 h in data set [2] (nude, mouse, plasma, iv, 10 mg/kg, single i.v. 10 mg/kg, read-out: elimination half-life (T1/2) in plasma (converted)); 68.7 ± 54.5 h in data set [2] (nude, mouse, tumor, iv, 10 mg/kg, multiple i.v. 10 mg/kg, read-out: elimination half-life (T1/2) in tumor (converted)); 45.3 h in data set [2] (nude, mouse, tumor, iv, 10 mg/kg, single i.v. 10 mg/kg, read-out: elimination half-life (T1/2) in tumor (converted)). The AUC(0-t) in data set [2] (nude, mouse, plasma, iv, single i.v. 10 mg/kg, read-out: plasma AUC(0-8h)) amounted to 174 ± 25.2 ng·h/mL. For the same compound, the Kp in data set [2] (nude, mouse, tumor and plasma, intravenous, 10 mg/kg, single dose, read-out: tumor AUC0-t / plasma AUC0-t ratio) worked out at 74.4. Moreover, the concentration at 96 h in data set [2] (nude, mouse, tumor, intravenous, 10 mg/kg, single dose, read-out: drug concentration in tumor tissue after 96 hours) was 69 ng/mL and ~140 nM. Moreover, the IC50 in data set [3] was 1.07 µM; in data set [4] it was more than 100 µM; in data set [6] (midazolam as the substrate) it was more than 10 µM; in data set [6] (testosterone as the substrate), 1.13 µM; in data set [7], more than 10 µM. Besides, in data set [5], the tumor inhibition rate is given as 86.05%.

The Cmax is the maximum level reached in the sampled fluid or tissue. Usually MRT stands for a mean duration of stay, worked out from the concentration-time curve. As a reminder, the IC50 is the point on the concentration scale where inhibition reaches its midpoint.
